The text below walks through data of publication PMC11820618 (Molecules, 2025).

One experiment deals with T1, human TRPV1 (Homo sapiens, UniProt Q8NER1).
T1 construct: expressed in transfected cells
Put plainly: cell-based. Conditions: for Emax: HEK293, read-out: TRPV1 Eff. %.

Another experiment deals with T2, rat TRPA1 (Rattus norvegicus, UniProt Q6RI86).
T2 construct: expressed in transfected cells
Put plainly: cell-based. Conditions: for Emax: HEK293, read-out: TRPA1 Eff. %.

The subject of a further experiment is TRPV1. Conditions: cited from earlier work; for EC50: read-out: TRPV1 EC50 (potency); for IC50: read-out: TRPV1 IC50 (desensitization).

Where two headings read alike, the source gives them in different places.

What is called EC50 is the midpoint of the concentration-response curve.
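For TRPA1 Eff. % in this document: percent of maximal Ca2+ influx with 100 µM AITC.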
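For TRPV1 Eff. % in this document: percent of maximal Ca2+ influx with 4 µM ionomycin.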

T1 sequence (Q8NER1 whole entry): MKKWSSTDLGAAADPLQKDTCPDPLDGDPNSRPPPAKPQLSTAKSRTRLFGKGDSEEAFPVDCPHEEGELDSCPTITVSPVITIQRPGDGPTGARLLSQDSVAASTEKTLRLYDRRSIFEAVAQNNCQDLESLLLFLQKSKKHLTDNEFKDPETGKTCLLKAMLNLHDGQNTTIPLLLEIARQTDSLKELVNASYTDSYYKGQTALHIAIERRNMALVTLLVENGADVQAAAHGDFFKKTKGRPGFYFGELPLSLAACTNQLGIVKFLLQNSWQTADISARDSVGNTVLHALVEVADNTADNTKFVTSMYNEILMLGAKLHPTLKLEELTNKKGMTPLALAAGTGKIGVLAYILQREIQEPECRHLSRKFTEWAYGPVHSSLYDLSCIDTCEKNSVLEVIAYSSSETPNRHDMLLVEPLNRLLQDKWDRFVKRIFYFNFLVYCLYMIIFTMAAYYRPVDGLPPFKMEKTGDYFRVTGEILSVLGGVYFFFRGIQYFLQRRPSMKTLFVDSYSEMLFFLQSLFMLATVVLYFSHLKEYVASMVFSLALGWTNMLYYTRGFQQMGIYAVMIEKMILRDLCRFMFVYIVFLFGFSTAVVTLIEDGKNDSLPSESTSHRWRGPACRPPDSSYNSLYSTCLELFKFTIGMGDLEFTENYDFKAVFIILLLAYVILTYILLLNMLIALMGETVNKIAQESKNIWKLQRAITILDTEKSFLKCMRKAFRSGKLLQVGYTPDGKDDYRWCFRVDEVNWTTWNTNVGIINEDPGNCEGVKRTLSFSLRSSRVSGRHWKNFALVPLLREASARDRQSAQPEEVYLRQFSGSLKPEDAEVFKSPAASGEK
T2 sequence (Q6RI86 whole entry): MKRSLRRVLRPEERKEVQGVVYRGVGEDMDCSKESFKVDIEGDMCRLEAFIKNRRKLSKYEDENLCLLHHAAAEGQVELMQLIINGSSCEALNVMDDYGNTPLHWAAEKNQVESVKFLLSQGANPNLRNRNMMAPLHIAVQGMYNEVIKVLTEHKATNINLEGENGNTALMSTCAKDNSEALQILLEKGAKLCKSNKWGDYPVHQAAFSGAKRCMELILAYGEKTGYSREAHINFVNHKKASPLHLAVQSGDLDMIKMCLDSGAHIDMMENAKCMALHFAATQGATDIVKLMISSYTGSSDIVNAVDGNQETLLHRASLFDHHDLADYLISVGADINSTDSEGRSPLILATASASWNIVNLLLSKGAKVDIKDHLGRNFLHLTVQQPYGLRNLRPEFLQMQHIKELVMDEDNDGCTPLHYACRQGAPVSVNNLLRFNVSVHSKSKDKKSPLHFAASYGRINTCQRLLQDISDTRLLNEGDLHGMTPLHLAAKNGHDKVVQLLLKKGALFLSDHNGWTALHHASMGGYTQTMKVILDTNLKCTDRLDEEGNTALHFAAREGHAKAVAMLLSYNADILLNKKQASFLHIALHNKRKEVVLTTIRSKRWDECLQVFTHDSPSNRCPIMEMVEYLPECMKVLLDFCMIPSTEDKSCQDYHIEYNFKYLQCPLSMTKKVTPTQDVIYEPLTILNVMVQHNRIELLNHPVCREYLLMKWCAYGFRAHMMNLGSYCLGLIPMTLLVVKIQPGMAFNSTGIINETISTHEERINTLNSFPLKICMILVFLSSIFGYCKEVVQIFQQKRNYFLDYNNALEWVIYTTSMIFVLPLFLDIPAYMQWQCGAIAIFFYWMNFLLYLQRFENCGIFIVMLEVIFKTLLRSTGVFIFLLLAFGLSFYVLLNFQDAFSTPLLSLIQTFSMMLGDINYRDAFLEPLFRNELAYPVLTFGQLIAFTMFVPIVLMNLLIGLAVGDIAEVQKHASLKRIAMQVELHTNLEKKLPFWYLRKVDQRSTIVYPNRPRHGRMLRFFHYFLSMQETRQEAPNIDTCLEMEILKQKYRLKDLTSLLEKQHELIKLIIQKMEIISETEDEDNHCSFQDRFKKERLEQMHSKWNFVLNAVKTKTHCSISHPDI

Turning to `Cn1c(C(=O)NCc2ccc(F)cc2)cc2ccccc21` [6f, N-(4-fluorobenzyl)-1-methyl-1H-indole-2-carboxamide], at human TRPV1, the IC50 is over 100 µM and the Emax is under 10%. At rat TRPA1, this molecule yielded an EC50 of 20.4 ± 6.9 µM and an IC50 of 33.5 ± 3.2 µM.
In the case of `COc1cc(CNC(=O)CCCc2ccc(I)s2)ccc1O` [4a], in the experiment with TRPV1, the EC50 was 0.0074 µM and the IC50 is 0.0051 µM.
For the molecule `O=C(NCc1ccc(F)c(F)c1)c1cc2ccccc2[nH]1` [5h, N-(3,4-Difluorobenzyl)-1H-indole-2-carboxamide], at human TRPV1, the IC50 was over 100 µM and the Emax is under 10%. For the same molecule, at rat TRPA1, the response was half-maximal at 19.1 ± 3.1 µM (EC50), the IC50 is over 50 µM and the Emax fell in the range of 68.4 to 101%.
As for `COc1cc(CNC(=O)CCCc2ccc(-c3cccnc3)s2)ccc1O` [4b], in the experiment on TRPV1, the EC50 was 0.0764 µM and the IC50 is 0.145 µM.
In the case of `O=C(NCc1ccc(O)cc1)c1cc2ccccc2[nH]1` [5c, N-(4-Hydroxybenzyl)-1H-indole-2-carboxamide], on human TRPV1, the EC50 is over 10 µM, the IC50 is over 50 µM and the Emax stood at 47.2 ± 0.3%. At rat TRPA1, the IC50 is over 100 µM and the Emax is under 10%.
In the case of `COc1ccc(CNC(=O)c2cc3ccccc3[nH]2)cc1` [5d, N-(4-Methoxybenzyl)-1H-indole-2-carboxamide], on human TRPV1, the IC50 was over 50 µM and the Emax is under 10%. Also, at rat TRPA1, the concentration for a half-maximal effect (EC50) is over 50 µM, the IC50 is over 100 µM and the Emax was 39.1 ± 3.5%.
As for `COc1cc(CNC(=O)CCCC/C=C/C(C)C)ccc1O` [capsaicin], in the experiment with TRPV1, the IC50 is […].
Take `Cn1c(C(=O)Nc2ccc(F)cc2)cc2ccccc21` [6b, N-(4-Fluorophenyl)-1-methyl-1H-indole-2-carboxamide]: at human TRPV1, the concentration for a half-maximal effect (EC50) is 3.5 ± 2.1 µM, the IC50 worked out at 6.9 ± 2.6 µM, the “TRPV1 Eff. %” value is 34.4 ± 4.5% and the Emax turned out to be 34.4%. Also, on rat TRPA1, the midpoint of the response, the EC50, lay at 2 ± 1.1 µM; the IC50 was 5.2 ± 0.4 µM; the “TRPA1 Eff. %” value was determined as 78.6 ± 9.7%; the “TRPA1 agonist behaviour (in words)” value is recorded as “very good TRPA1 agonist”. The Emax on rat TRPA1 was found to be 78.6%.
Consider `Cn1c(C(=O)NCCc2ccc(O)c(O)c2)cc2ccccc21` [6j, N-(3,4-Dihydroxyphenethyl)-1-methyl-1H-indole-2-carboxamide], for which, on human TRPV1, the midpoint of the response, the EC50, lay at 0.18 ± 0.05 µM; the IC50 came out at 0.26 ± 0.02 µM; the Emax is over 60%.
On to `Cn1c(C(=O)Nc2ccc(O)cc2)cc2ccccc21` [6a, N-(4-Hydroxyphenyl)-1-methyl-1H-indole-2-carboxamide], for which, on human TRPV1, the concentration for a half-maximal effect (EC50) was found to be 0.34 ± 0.01 µM, the IC50 was 0.72 ± 0.08 µM and the Emax is over 60%. At rat TRPA1, the EC50 was 22.7 ± 1.7 µM, the IC50 was over 50 µM and the Emax was found to be 42.9 ± 0.5%.
For the molecule `O=C(Nc1ccc(O)cc1)c1cc2ccccc2[nH]1` [5a, N-(4-Hydroxyphenyl)-1H-indole-2-carboxamide], at human TRPV1, the EC50 amounted to 2.3 ± 0.1 µM, the IC50 is 10 ± 3.9 µM and the Emax amounted to 54%. Also, at rat TRPA1, the IC50 is over 100 µM and the Emax was under 10%.
For `Cn1c(C(=O)NCc2ccc(F)c(F)c2)cc2ccccc21` [6i, N-(3,4-Difluorobenzyl)-1-methyl-1H-indole-2-carboxamide], on human TRPV1, the IC50 is over 100 µM and the Emax was under 10%. Besides, at rat TRPA1, the EC50 was determined as 10.9 ± 0.9 µM, the IC50 was determined as 32.2 ± 3.2 µM and the Emax is 68.4 to 101%.
For the molecule `COc1cc(CNC(=O)c2cc3ccccc3n2C)ccc1O` [6g, N-(4-hydroxy-3-methoxybenzyl)-1-methyl-1H-indole-2-carboxamide], on human TRPV1, the response was half-maximal at 0.0365 µM (EC50) and the Emax was over 60%. For the same molecule, the IC50 at human TRPV1 (read-out: TRPV1 IC50 (antagonism/desensitization)) amounted to 0.0535 ± 0.048 µM. At rat TRPA1, the 50% effective concentration (EC50) is over 50 µM, the IC50 was over 100 µM and the Emax came to 59.8 ± 1.6%.
`COc1cc(CNC(=O)CCCc2cccs2)ccc1O` [compound 2, N-(4-Hydroxy-3-Methoxybenzyl)-4-(Thiophen-2-yl)Butanamide]: in the experiment on TRPV1, the concentration for a half-maximal effect (EC50) was 0.87 µM and the IC50 is 1.3 µM.
Regarding `COc1cc(CNC(=O)c2cc3ccccc3[nH]2)ccc1O` [5f, N-(4-Hydroxy-3-methoxybenzyl)-1H-indole-2-carboxamide], at human TRPV1, the EC50 is 0.56 ± 0.08 µM, the IC50 is 1.03 ± 0.09 µM, the “TRPV1 Eff. %” value is reported as 66.8 ± 1.3% and the Emax was 66.8%.
For the molecule `Cn1c(C(=O)NCc2ccc(Cl)c(Cl)c2)cc2ccccc21` [6h, N-(3,4-Dichlorobenzyl)-1-methyl-1H-indole-2-carboxamide], on human TRPV1, the IC50 was determined as 16.4 ± 0.5 µM and the Emax is under 10%.
As for `Cn1c(C(=O)NCc2ccccc2)cc2ccccc21` [6c, N-Benzyl-1-methyl-1H-indole-2-carboxamide], at human TRPV1, the IC50 was over 50 µM and the Emax was under 10%. Besides, at rat TRPA1, the IC50 was over 50 µM and the Emax was under 10%.
As to `O=C(NCCc1ccc(O)c(O)c1)c1cc2ccccc2[nH]1` [5i, N-(3,4-Dihydroxyphenethyl)-1H-indole-2-carboxamide], at human TRPV1, the response was half-maximal at 8.1 ± 0.1 µM (EC50), the IC50 amounted to 2.1 ± 0.1 µM, the “TRPV1 agonist behaviour (in words)” value is listed as “very weak agonist” and the Emax came to 37.3 ± 0.1%.
For the molecule `COc1cc(CNC(=O)CCCc2ccccc2)ccc1O` [4d], in the experiment with TRPV1, the EC50 is 0.109 µM and the IC50 was 0.273 µM.
For `COc1cc(CNC(=O)CCCCC2CCSS2)ccc1O` (stereo not drawn) [compound 3], in the experiment with TRPV1, the 50% effective concentration (EC50) was 0.13 µM and the IC50 was 0.13 µM.
`O=C(NCc1ccc(F)cc1)c1cc2ccccc2[nH]1` [5e, N-(4-Fluorobenzyl)-1H-indole-2-carboxamide]: on human TRPV1, the IC50 is over 100 µM and the Emax was under 10%. Besides, on rat TRPA1, the midpoint of the response, the EC50, lay at 23.7 ± 2.1 µM; the IC50 is over 50 µM; the Emax stood at 42.8 ± 1.8%.
With `O=C(NCc1ccc(Cl)c(Cl)c1)c1cc2ccccc2[nH]1` [5g, N-(3,4-Dichlorobenzyl)-1H-indole-2-carboxamide], on human TRPV1, the IC50 was over 100 µM and the Emax was under 10%.
As to `O=C(NCc1ccccc1)c1cc2ccccc2[nH]1` [5b, N-Benzyl-1H-indole-2-carboxamide], the IC50 against human TRPV1 and against rat TRPA1 was over 100 µM in each case. Moreover, the Emax on human TRPV1 and on rat TRPA1 was under 10% in each case.
In the case of `COc1cc(CNC(=O)CCCc2ccc(-c3ccccc3)s2)ccc1O` [4c], in the experiment on TRPV1, the EC50 is 0.0016 µM and the IC50 is 0.0017 µM.
As to `COc1ccc(CNC(=O)c2cc3ccccc3n2C)cc1` [6e, N-(4-methoxybenzyl)-1-methyl-1H-indole-2-carboxamide], on human TRPV1, the IC50 is over 10 µM and the Emax was under 10%. Also, on rat TRPA1, a half-maximal response (EC50) required 20.3 ± 1.1 µM, the IC50 was over 50 µM and the Emax came to 81.3 ± 1.8%.
On to `Cn1c(C(=O)NCc2ccc(O)cc2)cc2ccccc21` [6d, N-(4-hydroxybenzyl)-1-methyl-1H-indole-2-carboxamide], for which, on human TRPV1, a half-maximal response (EC50) required 1.1 ± 0.1 µM, the IC50 is 19.2 ± 6.7 µM, the “TRPV1 Eff. %” value was determined as 27.6 ± 0.3% and the Emax stood at 27.6%. Besides, at rat TRPA1, the IC50 is over 100 µM and the Emax is under 10%.
